Like-named read-outs stand apart in the source and are kept apart here.
Assays:
[1] = tested on: JCV strain Mad1/SVEΔ; assay: microbe, parasite or virus in culture; assay type: cell-based, JC polyomavirus (JCV); settings: for % Inhibition (total #JCV+) @10 uM: SV40 transformed glial cells, Mad-1/SVEΔ JCV; for % Inhibition (% JCV+) @10 uM: infection rate, JCV+ cells normalised to total cells
Description: (§1) SV40 transformed glial cells were seeded in 10% FBS media. The cells were seeded at 2000 cells per well in 75 μl of media per well. On day 2, the media was removed and replaced by 35 μl of a 1× concentrated drug aliquot combined with a 100× diluted JCV Turbo aliquot in 35 μl of 2% FBS media (JCV Turbo is a hybrid Mad-1/SVEΔ virus constructed by insertion of the regulatory region of SV40 into the regulatory region of the Mad-1 strain of JCV (Mad-1/SVE), Vacante et al., Virology 1989, 170: 353-361). The cells were incubated for an hour, after which another 65 uL aliquot of 1× concentrated drug in 2% FBS was added. On day 5 the cells were stained with DAPI (for total cell number) and with a mouse monoclonal antibody against SV40 VP1, which cross reacts with the JCV VP1 protein. […] The information is tabulated as % inhibition (as measured by the number and percentage of JCV positive cells).
(§2) JCV Infectivity Assay: SVG-A cells were seeded at 2,000 cells/well/0.075 ml of culture media in 96 flat-bottom well plate (Corning, N.Y.). The next day compounds were prepared in assay medium (2% heat-inactivated fetal bovine serum, 4 mM L-glutamine, 1×MEM). A master viral plate was prepared by mixing equal volumes of [2×] compound and [2×] diluted virus for the final 1× concentration of the compound and the virus. The plate containing cells was gently inverted and shaken to remove media. From the master plate, 0.035 ml compound/virus was added to designated wells. The cells were incubated with the compound/virus mixture for 60 minutes in a humidified 37° C. CO2 incubator. At that time final concentration of the drug in media was added to designated wells to bring the final volume up to 0.1 ml/well. The plates were incubated for an additional three days, the cells were then washed once with 1×PBS, and fixed in 2% paraformaldehyde/1×PBS for 30 minutes at room temperature. The fixative was removed and the cells were solubilized with 0.5% Triton X100 in PBS for an additional 30 minutes. Infection by Mad-1/SVEΔ virus was visualized by staining with PAB597, a monoclonal antibody against the major capsid protein VP1, the cells were incubated with 0.05 ml of PAB597 (2 μg/ml in 1×PBS) for 60 minutes at 37° C. Following a wash step with 1×PBS, primary antibody was detected with an Alexa-Fluor 488-labeled goat anti-mouse secondary antibody at 1:100 dilution in 1×PBS, cells were counterstained with DAPI at 1 μg/ml (0.05 ml/well) for 30 minutes at 37° C. Cells were washed with 1×PBS and 0.1 ml 1×PBS was added to cells. Field images of each well were acquired and analyzed using the Cellomics ArrayScan (Thermo Scientific Inc, Waltham, Mass.) using the Target Activation software. […] The cells are seeded at 4,000 cells/well/0.075 ml of culture media in 96 flat-bottom well plate (Corning). The culture media is used for the infection. The length of the infection is six to ten days (instead of the three days for SVG-A cells).
Calculations: The rate of JCV infection was calculated by normalizing the number of JCV infected cells by the total number of nucleated cells as % JCV^+ cells=((total # VP1^+ cells)/(total # DAPI^+ cells))*100%. The % of viral inhibition by a compound was calculated using a JCV infection rate instead of using total number of JCV infected cells (e.g., VP1^+ cells).

[2] = tested on: SVG-A cells; assay: Total cell number (DAPI+ events) / cytotoxicity in the JCV infectivity assay; settings: for % Inhibition total Cell Number @10 uM: cytotoxicity, DAPI count; for inhibition at 10 µM: Homo sapiens, SVG-A, read-out: % Inhibition total Cell Number @10 uM
Description: as §1, §2
The primary assay employed an SVG-A cell line and JCV Mad1/SVEΔ viral strain.

[3] = JC polyomavirus, Glial cell, read-out: % Inhibition (total #JCV+) @10 uM
[4] = JC polyomavirus, SVG-A, read-out: % Inhibition (% JCV+) @10 uM

Row | SMILES | % Inhibition (total #JCV+) @10 uM [1] | % Inhibition (% JCV+) @10 uM [1] | % Inhibition total Cell Number @10 uM [2] | inhibition at 10 µM [1, 3] | inhibition at 10 µM [1, 4] | inhibition at 10 µM [2] | other results
1 | C[C@@H]1CC[C@@]2(OC1)O[C@H]1C[C@H]3[C@@H]4CC[C@H]5C[C@@H](O)CC[C@]5(C)C4=CC[C@]3(C)[C@H]1[C@@H]2C [3beta-HYDROXYISOALLOSPIROST-9(11)-ENE] | 25% | 21% | 3% |  |  |  | 
2 | CCCCOc1cc(CC2CNC(=O)N2)ccc1OC (stereo not drawn) [4-(3-BUTOXY-4-METHOXYBENZYL)IMIDAZOLIDIN-2-ONE] |  |  |  | 48% | 42% | 12% | 
3 | O=C(O)c1cc([N+](=O)[O-])ccc1NCCCc1ccccc1 [5-NITRO-2-PHENYLPROPYLAMINOBENZOIC ACID] | 14% | 21% | −9% |  |  |  | 
4 | O=c1cc(-c2ccc(O)cc2)oc2ccc(O)cc12 [6,4′-DIHYDROXYFLAVONE] |  |  |  | 18% | 22% | -5% | 
5 | COc1ccc([C@@H](C)C(=O)c2ccc(O)cc2O)cc1 [(R)-ANGOLENSIN] | 18% | 22% | −5% |  |  |  | 
6 | COc1ccc2c(c1)c(CC(=O)OCC(=O)O)c(C)n2C(=O)c1ccc(Cl)cc1 [ACEMETACIN] |  |  |  | 32% | 38% | -8% | 
7 | CC(=O)OCC(=O)[C@@]12OC3(CCCC3)O[C@@H]1C[C@H]1[C@@H]3CCC4=CC(=O)C=C[C@]4(C)[C@@]3(F)[C@@H](O)C[C@@]12C [AMCINONIDE] |  |  |  | 16% | 25% | -11% | 
8 | NCCOB(c1ccccc1)c1ccccc1 [AMINOETHOXYDIPHENYLBORANE] |  |  |  | 25% | 21% | 3% | 
9 | C[C@H]1C[C@H]2[C@@H]3CCC4=CC(=O)C=C[C@]4(C)[C@@]3(F)[C@@H](O)C[C@]2(C)[C@@]1(O)C(=O)CO [BETAMETHASONE] |  |  |  | 34% | 24% | 14% | 
10 | CCOc1nc2cccc(C(=O)OC(C)OC(=O)OC3CCCCC3)c2n1Cc1ccc(-c2ccccc2-c2nn[nH]n2)cc1 (stereo not drawn) [CANDESARTAN CILEXTIL] | 54% | 44% | 19% |  |  |  | 
11 | CCCCCCCCCCCCCCCC(=O)OC[C@@H](NC(=O)C(Cl)Cl)[C@H](O)c1ccc([N+](=O)[O-])cc1 [CHLORAMPHENICOL PALMITATE] |  |  |  | 20% | 29% | -13% | 
12 | O=c1cc(-c2ccccc2)oc2cc(O)cc(O)c12 [CHRYSIN] |  |  |  | 18% | 26% | -12% | 
13 | COc1ccc(-c2cc(=O)c3c(O)c(OC)c(OC)c(OC)c3o2)cc1OC [DEMETHYLNOBILETIN] | 38% | 20% | 20% |  |  |  | 
14 | O=C(O)Cc1ccccc1Nc1c(Cl)cccc1Cl [DICLOFENAC SODIUM] |  |  |  | 44% | 31% | 18% | IC50 ([1]; JC polyomavirus, SVG-A): 8.3 µM; CC50 ([2]; human, 3 days): 30.5 µM
15 | O=c1oc2ccccc2c(O)c1Cc1c(O)c2ccccc2oc1=O [DICUMAROL] |  |  |  | 36% | 35% | 3% | 
16 | CC/C(=C(/CC)c1ccc(O)cc1)c1ccc(O)cc1 [DIETHYLSTILBESTROL] |  |  |  | 42% | 29% | 18% | 
17 | COc1cc(C)c(C(=O)Oc2cc(C)c(C(=O)O)c(O)c2C)c(OC)c1C [DIFFRACTIC ACID] | 44% | 36% | 13% |  |  |  | IC50 ([1]; anti-JCV, inhibition of % JCV infected cells by 50%, full dose response, read-out: IC50): 14.4 µM; CC50 [2]: > 40 µM
18 | COc1ccc(C(=O)c2ccccc2O)c(O)c1 [DIOXYBENZONE, 2,2′-Dihydroxy-4-methoxybenzophenone] |  |  |  | 55% | 49% | 11% | 
19 | OCCN(CCO)c1nc(N2CCCCC2)c2nc(N(CCO)CCO)nc(N3CCCCC3)c2n1 [DIPYRIDAMOLE] |  |  |  | 24% | 22% | 3% | 
20 | O=S1OCC2C(CO1)C1(Cl)C(Cl)=C(Cl)C2(Cl)C1(Cl)Cl (stereo not drawn) [ENDOSULFAN] |  |  |  | 54% | 44% | 19% | 
21 | O=C(O)c1ccccc1Nc1cccc(C(F)(F)F)c1 [FLUFENAMIC ACID] |  |  |  | 37% | 26% | 14% | 
22 | C=C[C@@H]1C2=CCOC(=O)C2=CO[C@H]1O[C@@H]1O[C@H](CO)[C@@H](O)[C@H](O)[C@H]1O [GENTIOPICROSIDE] |  |  |  | 32% | 22% | 11% | 
23 | COc1cc2c(cc1-c1coc3c4c(c(OC)cc3c1=O)OC(C)(C)C=C4)OCO2 [ICHTHYNONE] |  |  |  | 34% | 24% | 14% | 
24 | C[C@H](N)CO [L-ALANINOL] | 13% | 31% | −23% |  |  |  | 
25 | COC(=O)c1c(C)c2c(c(C)c1O)OC(=O)c1c(C)c(Cl)c(O)c(Cl)c1O2 [LEOIDIN] |  |  |  | 14% | 21% | -9% | 
26 | COc1cc(OC)c(C(C)=O)c(OC)c1 [METHYLXANTHOXYLIN] | 33% | 30% | 5% |  |  |  | 
27 | COc1ccc2cc(CCC(C)=O)ccc2c1 [NABUMETONE] |  |  |  | 20% | 23% | -2% | 
28 | COc1cc2c(cc1-c1cc3cc4ccoc4cc3oc1=O)OCO2 [PACHYRRHIZIN] | 45% | 34% | 17% |  |  |  | 
29 | CC(C)=CCc1c(O)cc2oc(C)cc(=O)c2c1O [PEUCENIN] |  |  |  | 21% | 27% | -7% | 
30 | Nc1nc2ccc(OC(F)(F)F)cc2s1 [RILUZOLE] |  |  |  | 16% | 26% |  | 

— US9233107B2, “Compositions and methods for the treatment of progressive multifocal leukoencephalopathy (PML)” (Biogen MA Inc., priority 2007, dated 2016)
